Data taken from paper PMC7409197, “Adenosine Receptors as Neuroinflammation Modulators: Role of A1 Agonists and A2A Antagonists” (Cells, 2020).

Experiments:
mixed glial cells [1] = test: CellTiter 96 AQueous One (MTS) cell viability, ligands alone, mixed glial cells; assay type: cell-based, rat; conditions: for toxicity in vitro (cell viability): compared with CCPA and ZM241385; for cell viability vs. control: ligand alone
Description: Newborn male Wistar rats were sacrificed and mixed glial cell cultures were obtained from the cerebral cortices. Cerebral cortices were dissected, and meninges were cleared away. Tissues were treated with trypsin solution (trypsin 0.05% (w/v) trypsin-EDTA 5 mM) for 25 min at 37 °C. The tissue was fully disaggregated by pipetting and the dissociated cells were seeded in a 6-well plate with Dulbecco’s modified Eagle’s/High glucose medium enriched with 100 U/mL penicillin, 100 µg/mL streptomycin and 10% FBS. Fresh medium was changed the next day and then every 3 days decreasing the quantity of FBS. All experiments were carried out after 7–9 days of plating.
Mixed glial cell cultures were divided into 2 groups, one to study A1AR partial agonists and another for A2AAR antagonists. Cells from the first group were pre-treated with 2 µL at three different concentrations of C1 for 15, 30 or 60 min and then with further addition of a pro-inflammatory cocktail of cytokines (TNF-α, 20 ng/mL; IL-1β, 20 ng/mL; IFN-γ 20 ng/mL) for 48 h. […] To study C2 cells were pre-treated with the same CK cocktail for 48 h and then with 2 µL of C2 at three different concentrations for 15, 30, or 60 min (Scheme 1). ZM241385, a well known A2AAR antagonist, was used as reference compound. Furthermore, ligands and CK were tested alone for 15, 30 or 60 min and 48 h respectively.
1.7 × 10^4 mixed glial cells were cultured in 98 μL of the specific medium in a 96 well plate overnight. The next day 2 μL of ligand or CK cocktail were added to the well. After all treatments, 20 µL of CellTiter 96® AQueous One Solution Reagent was added in a final volume of 100 µL. Absorbance was read at 490 nm using the plate reader GENiosPro. Cell viability was calculated as percentage using the following formula: Cell viability =OD mean of treated cells/OD mean of control cells × 100

human A1AR = target: human A1AR; set-up: method as in PMID 30614535; conditions: CHO cells stably transfected with human ARs; read-out: KiA1AR; cited from earlier work
human A2AAR = target: human A2AAR; set-up: method as in PMID 30614535; conditions: CHO cells stably transfected with human ARs; read-out: KiA2AAR; cited from earlier work
hA1AR = test system: hA1AR; set-up: method as in PMID 30614535; conditions: inhibition of adenyl cyclase activity induced by forskolin, cited from earlier work
SH-SY5Y cells = test system: SH-SY5Y cells; set-up: method as in PMID 30614535; conditions: different concentrations; cited from earlier work
human A3AR = target: human A3AR; set-up: method as in PMID 30614535; conditions: CHO cells stably transfected with human ARs; read-out: KiA3AR; cited from earlier work
[2] = test system: mouse ileum contractility; set-up: method as in PMID 30614535; conditions: ex vivo mouse ileum; cited from earlier work
A1AR = target: T1, A1AR (Homo sapiens, UniProt P30542); test: A1AR affinity (Ki), method not described; assay type: binding; conditions: unpublished results of the authors; read-out: KiA1AR
T1 sequence (P30542 1-326): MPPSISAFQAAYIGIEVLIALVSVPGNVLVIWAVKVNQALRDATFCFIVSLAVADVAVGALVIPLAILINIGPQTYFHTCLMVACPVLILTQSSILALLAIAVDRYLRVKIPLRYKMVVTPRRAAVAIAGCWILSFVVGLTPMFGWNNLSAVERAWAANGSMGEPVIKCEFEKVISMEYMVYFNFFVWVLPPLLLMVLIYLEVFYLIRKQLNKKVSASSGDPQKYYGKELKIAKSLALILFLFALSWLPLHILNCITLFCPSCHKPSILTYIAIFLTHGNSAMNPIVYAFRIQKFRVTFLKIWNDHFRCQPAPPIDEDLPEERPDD

A2AAR [3] = target: T2, A2AAR (Homo sapiens, UniProt P29274); test: A2AAR affinity (Ki), method not described; assay type: binding; conditions: unpublished results of the authors; read-out: KiA2AAR
T2 sequence (P29274 whole entry): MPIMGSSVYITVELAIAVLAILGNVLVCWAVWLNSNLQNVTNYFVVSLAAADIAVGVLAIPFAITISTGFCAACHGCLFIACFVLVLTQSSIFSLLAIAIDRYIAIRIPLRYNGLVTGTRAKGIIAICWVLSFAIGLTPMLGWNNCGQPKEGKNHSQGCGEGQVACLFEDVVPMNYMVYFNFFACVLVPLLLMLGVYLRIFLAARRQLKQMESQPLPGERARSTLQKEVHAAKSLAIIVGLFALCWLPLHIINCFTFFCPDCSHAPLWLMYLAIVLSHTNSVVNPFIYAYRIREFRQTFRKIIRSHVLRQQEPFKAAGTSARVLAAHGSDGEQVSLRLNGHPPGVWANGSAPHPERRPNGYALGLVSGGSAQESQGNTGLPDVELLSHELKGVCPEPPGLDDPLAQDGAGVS

A3AR = target: T3, A3AR (Homo sapiens, UniProt P0DMS8); test: A3AR affinity (Ki), method not described; assay type: binding; conditions: unpublished results of the authors; read-out: KiA3AR
T3 sequence (P0DMS8 1-318): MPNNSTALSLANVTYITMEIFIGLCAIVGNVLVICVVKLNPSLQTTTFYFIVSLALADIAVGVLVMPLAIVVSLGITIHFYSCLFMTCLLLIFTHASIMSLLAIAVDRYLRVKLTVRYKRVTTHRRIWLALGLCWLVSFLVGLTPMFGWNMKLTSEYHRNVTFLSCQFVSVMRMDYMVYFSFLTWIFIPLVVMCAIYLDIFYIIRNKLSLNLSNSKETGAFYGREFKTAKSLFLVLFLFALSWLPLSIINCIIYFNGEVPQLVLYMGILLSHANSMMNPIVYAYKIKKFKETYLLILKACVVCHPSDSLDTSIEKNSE

mixed glial cells [4] = test: Trypan blue exclusion test in mixed glial cells; assay type: cell-based, rat; conditions: 30 min
Description: 6 × 10^5 mixed glial cells were seeded in a six well plate and after 24 h incubated with C2 10 nM alone or in presence of CK cocktail. After 30 min at 37 °C cells were detached with Trypsin-EDTA solution and 10 µL of cells were added to 40 μL of 0.4% trypan blue solution. Cells were counted with a Neubauer chamber and the number of live cells was calculated.

A2AAR [5] = target: T2, A2AAR; test: A2AAR functional antagonism (IC50), method not described; assay type: biochemical; conditions: unpublished results of the authors; read-out: IC50A2AAR

Compound	toxicity in vitro (cell viability) (mixed glial cells [1])	cell viability vs. control (mixed glial cells [1]; 5.5 µM, 30 min)	cell viability vs. control (mixed glial cells [1]; 30 µM, 15 min)	Ki (human A1AR)	Ki (human A2AAR)	α (intrinsic activity, partial agonist) (hA1AR)	EC50 (hA1AR; read-out: EC50A1AR)	protection from oxygen-glucose deprivation (OGD) (SH-SY5Y cells)	Ki (human A3AR)	maximal reduction of contractility relative to full agonist CCPA [2]	cell viability vs. control (mixed glial cells [1]; 10 nM, 15 min)	cell viability vs. control (mixed glial cells [1]; 10 nM, 30 min)	cell viability vs. control (mixed glial cells [1]; 10 nM, 60 min)	cell viability vs. control (mixed glial cells [1]; 60 nM, tendency to toxicity)	Ki (A1AR)	Ki (A2AAR [3])	Ki (A3AR)	live cells vs. control (trypan blue) (mixed glial cells [4]; 10 nM alone)	number of cells vs. control (trypan blue) (mixed glial cells [4]; 10 nM, after aggression with CK cocktail)	IC50 (A2AAR [5])
OC[C@H]1O[C@@H](n2cnc3c(NC4CCCC4)nc(Cl)nc32)C[C@@H]1O [Compound C1, 2-chloro-N^6-cyclopentyl-2′-deoxyadenosine]	no toxic effect	116 ± 1.7%	117 ± 1.3%	550 nM	24800 nM	0.70	832 nM	protect SH-SY5Y cells from oxygen-glucose deprivation (OGD)	5560 nM	75%										
CCn1c(Cl)nc2c(N)nc(OCCc3ccccc3)nc21 [Compound C2, 8-chloro-9-ethyl-2-phenethoxyadenine]	no toxic effect										110 ± 2.7%	127 ± 3.1%	125 ± 4.3%	~80%	17 nM	0.75 nM	227 nM	123 ± 4.5	129 ± 3.5	251 nM
